Test results from US9504675B2, “Alpha-ketoheterocycles and methods of making and using” (The Scripps Research Institute, priority 2011, dated 2016).

Tests used:
[1] = tested on: endogenous levels of FAAH substrates AEA, PEA, OEA and of 2-AG, AA; experiment: In vivo pharmacodynamic studies: brain and liver lipid levels after inhibitor treatment (LC-MS); parameters: species or system mouse (C57BL/6J); settings: Table 6, 30 mg/kg i.p., 1 h, single mouse; for Brain 2-AG (fold increase) / Brain AA (fold increase) / Brain AEA (fold increase) / Brain PEA (fold increase): vs vehicle
Description: This includes monitoring the effects of the inhibitors on the endogenous levels of the FAAH substrates anandamide (AEA, N-arachidonoyl ethanolamine), N-oleoyl ethanolamine (OEA), and N-palmitoyl ethanolamine (PEA), as well as the key lipids 2-arachidonoylglycerol (2-AG) and arachidonic acid (AA) that are not endogenous substrates for FAAH.
Inhibitors were prepared as a saline-emulphor emulsion for intraperitoneal (i.p.) administration by vortexing, sonicating, and gently heating neat compound directly into an 18:1:1 v/v/v solution of saline:ethanol:emulphor, or as a homogeneous PEG solution for oral administration (p.o.) by vortexing, sonicating, and gently heating neat compound directly into PEG300 (Fluka). Male C57BL/6J mice (<6 months old, 20-28 g) were administered inhibitors in saline-emulphor emulsion or an 18:1:1 v/v/v saline:emulphor:ethanol vehicle i.p. at a volume of 10 μL/g weight, or alternatively inhibitors in PEG300 or a PEG300 vehicle p.o. at a volume of 4 μL/g weight. After the indicated amount of time, mice were anesthetized with isofluorane and killed by decapitation. Total brains (˜400 mg) and a portion of the liver (˜100 mg) were removed and flash frozen in liquid N2.
Tissue was weighed and subsequently Dounce homogenized in 2:1:1 v/v/v CHCl3:MeOH:Tris pH 8.0 (8 mL) containing standards for lipids (50 pmol d4-PEA, 2 pmol d4-AEA, 0.5 nmol ds-2-AG, and 10 nmol pentadecanoic acid). The mixture was vortexed and then centrifuged (1,400×g, 10 min). The organic layer was removed, dried under a stream of N2, resolubilized in 2:1 v/v CHCl3:MeOH (120 μL), and 10 μL of this resolubilized lipid was injected onto an Agilent G6410B QQQ instrument. […] Mobile phase A was composed of a 95:5 v/v H2O:MeOH, and mobile phase B was composed of a 65:35:5 v/v/v i-PrOH:MeOH:H2O. 0.1% Formic acid or 0.1% ammonium hydroxide was included to assist in ion formation in positive and negative ionization mode, respectively. The flow rate for each run started at 0.1 mL/min with 0% B. At 5 min, the solvent was immediately changed to 60% B with a flow rate of 0.4 mL/min and increased linearly to 100% B over 10 min. […] MS analysis was performed with an electrospray ionization (ESI) source. […] For negative polarity, the analysis was performed in MS2 scan mode from 100-1000 m/z. The capillary was set to 4 kV, the fragmentor was set to 100 V, and the delta EMV was set to 0. Lipids were quantified by measuring the area under the peak in comparison to the standards.

[2] = tested on: mice, acute thermal pain (tail flick at 52° C.); experiment: Mouse tail flick assay (52° C. warm water), acute thermal pain; format: in vivo, mouse (CD-1); settings: i.v. administration
Description: Concurrent with these studies, two prototypical inhibitors 12 and 14 were examined for antinociceptive activity in a preclinical model of acute thermal pain (tail flick at 52° C.) in mice alongside 2 and morphine (i.v. administration).
Male CD-1 (25-35 g, Charles River) mice were housed in groups of five in Plexiglas chambers with food and water available ad libitum. All animals were maintained on a 12 h light/dark cycle (lights on at 7:00 AM) in a temperature- and humidity-controlled animal colony. All tail-flick experiments were performed under an approved University of New England animal protocol in accordance with institutional guidelines and in accordance with the Guide for the Care and Use of Laboratory Animals as adopted and promulgated by the National Institutes of Health. Efficacy of the test compound was assessed using the 52° C. warm water tail-flick test. The latency to the first sign of a rapid tail-flick was taken as the behavioral endpoint. Each mouse was first tested for baseline latency by immersing its tail in the water and recording the time to response. Mice not responding within 5 sec were excluded from further testing. Mice were then administered the test compound and tested for antinociception at various time points afterwards. Antinociception was calculated by the following formula: % Antinociception=100×(test latency−control latency)/(10−control latency). A maximum score was assigned (100%) to animals not responding within 10 sec to avoid tissue damage.

[3] = target: T1, recombinant rat FAAH (rFAAH) (Rattus norvegicus, UniProt P97612); experiment: Enzyme assay: inhibition of purified recombinant rat FAAH, 14C-oleamide hydrolysis, Ki by Dixon plot; format: biochemical; settings: Ki
T1 construct: The truncated rat FAAH (rFAAH) was expressed in E. coli and purified; made in house; host or cells: Escherichia coli
T1 sequence (P97612 30-579 limits assumed): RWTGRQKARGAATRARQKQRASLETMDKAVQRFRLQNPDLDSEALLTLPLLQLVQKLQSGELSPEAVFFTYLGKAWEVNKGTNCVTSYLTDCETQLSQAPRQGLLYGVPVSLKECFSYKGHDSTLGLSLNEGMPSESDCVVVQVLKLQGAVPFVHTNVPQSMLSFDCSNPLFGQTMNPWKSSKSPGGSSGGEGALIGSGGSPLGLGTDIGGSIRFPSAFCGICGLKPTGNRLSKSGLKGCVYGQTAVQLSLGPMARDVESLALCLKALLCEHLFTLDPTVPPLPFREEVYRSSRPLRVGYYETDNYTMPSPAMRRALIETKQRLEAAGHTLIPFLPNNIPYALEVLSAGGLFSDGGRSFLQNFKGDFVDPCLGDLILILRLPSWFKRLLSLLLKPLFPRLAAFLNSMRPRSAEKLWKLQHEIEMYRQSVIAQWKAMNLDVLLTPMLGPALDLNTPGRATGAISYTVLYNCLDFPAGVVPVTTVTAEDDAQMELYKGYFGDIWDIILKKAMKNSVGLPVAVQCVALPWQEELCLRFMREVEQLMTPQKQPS
Description: Enzyme assays were performed at 20-23° C. with purified recombinant rat FAAH expressed in Escherichia coli or with solubilized COS-7 membrane extracts from cells transiently transfected with human FAAH cDNA (where specifically indicated) in a buffer of 125 mM Tris/1 mM EDTA/0.2% glycerol/0.02% Triton X-100/0.4 mM Hepes, pH 9.0.
^14C-labeled oleamide was prepared from ^14C-labeled oleic acid. The truncated rat FAAH (rFAAH) was expressed in E. coli and purified. The purified recombinant rFAAH was used in the inhibition assays unless otherwise indicated. The full-length human FAAH (hFAAH) was expressed in COS-7 cells as described, and the lysate of hFAAH-transfected COS-7 cells was used in the inhibition assays where explicitly indicated.
The inhibition assays were performed as follows. […] The enzyme reaction was terminated by transferring 20 μL of the reaction mixture to 500 μL of 0.1 N HCl at three different time points. The ^14C-labeled oleamide (substrate) and oleic acid (product) were extracted with EtOAc and analyzed by TLC as detailed. The Ki of the inhibitor was calculated using a Dixon plot as described (standard deviations are provided in the Supporting Information tables).

[4] = Table 4, (S)-enantiomer, additional FAAH inhibitors
[5] = Table 2, (S)-enantiomer, 1,2,3,4-tetrahydronaphthalene C2 acyl side chain
[6] = Table 3, tentatively assigned (S)-enantiomer, indane C2 acyl side chain
[7] = Table 3, (R)-enantiomer, indane C2 acyl side chain

O=C(c1ncc(-c2ccccn2)o1)C1Cc2ccc(Oc3ccccc3)cc2C1 (centres unmarked) [Compound 27, (5-Phenoxyindan-2-yl)(5-(pyridin-2-yl)oxazol-2-yl)methanone] was tested, and the “Brain 2-AG” value [1] was 11 pmol/g, the “Brain AA” value [1] was 190 pmol/g and the “Brain AEA” value [1] was 24 pmol/g. For the same compound, the “Brain PEA” value [1] was 800 pmol/g, the “Brain 2-AG (fold increase)” value [1] was 0.8 fold increase and the “Brain AA (fold increase)” value [1] was 0.9 fold increase. The “Brain AEA (fold increase)” value [1] was 3.0 fold increase and the “Brain PEA (fold increase)” value [1] was 7.4 fold increase.
O=C(O)c1cccc(-c2cnc(C(=O)C3Cc4ccc(Oc5ccccc5)cc4C3)o2)n1 (centres unmarked) [Compound 29, 6-(2-(5-Phenoxyindane-2-carbonyl)oxazol-5-yl)picolinic acid] was tested, and the “Brain 2-AG” value [1] was 12 pmol/g, the “Brain AA” value [1] was 172 pmol/g and the “Brain AEA” value [1] was 8 pmol/g. The “Brain PEA” value [1] was 131 pmol/g, the “Brain 2-AG (fold increase)” value [1] was 0.9 fold increase and the “Brain AA (fold increase)” value [1] was 0.8 fold increase. For the same compound, the “Brain AEA (fold increase)” value [1] was 1.0 fold increase and the “Brain PEA (fold increase)” value [1] was 1.2 fold increase.
CN1CC[C@]23c4c5ccc(O)c4O[C@H]2[C@@H](O)C=C[C@H]3[C@H]1C5 [morphine, reference compound] was tested, and the “duration of antinociceptive effect” value [2] was 150 min.
COC(=O)c1nnc(C(=O)C2CCc3cc(Oc4ccccc4)ccc3C2)o1 (single isomer, unassigned) [(S)-35, Methyl 5-(6-Phenoxy-1,2,3,4-tetrahydronaphthalene-2-carbonyl)-[1,3,4]oxadiazole-2-carboxylate] showed a Ki [3, 4] of 1.5 nM.
N#Cc1cnc(C(=O)C2CCc3cc(OCc4ccccc4)ccc3C2)o1 (single isomer, unassigned) [(S)-17, 2-(6-(Benzyloxy)-1,2,3,4-tetrahydronaphthalene-2-carbonyl)oxazole-5-carbonitrile] gave a Ki [3, 5] of 3.2 nM.
Compound O=C(O)c1cccc(-c2cnc(C(=O)C3Cc4ccc(Oc5ccccc5)cc4C3)o2)n1 (single isomer, unassigned) [(S)-29, 6-(2-(5-Phenoxyindane-2-carbonyl)oxazol-5-yl)picolinic acid] has a Ki [3, 6] of 71 nM.
For O=C(c1ncc(-c2ccccn2)o1)C1CCc2cc(-c3ccccc3)ccc2C1 (single isomer, unassigned) [(S)-6, (6-Phenyl-1,2,4-tetrahydronaphthalen-2-yl)(5-(pyridin-2-yl)oxazol-2-yl)methanone], the Ki [3, 5] was 7.2 nM.
Work on COC(=O)c1cnc(C(=O)C2CCc3cc(OCc4ccccc4)ccc3C2)o1 (single isomer, unassigned) [(S)-16, Methyl 2-(6-(Benzyloxy)-1,2,3,4-tetrahydronaphthalene-2-carbonyl)oxazole-5-carboxylate] yielded a Ki [3, 5] of 2.9 nM.
With O=C(c1ncco1)C1CCc2ccccc2C1 (single isomer, unassigned) [(S)-37, Oxazol-2-yl(1,2,3,4-tetrahydronaphthalen-2-yl)methanone] the Ki [3, 4] was 5100 nM.
With COC(=O)c1cccc(-c2cnc(C(=O)C3Cc4ccc(OCc5ccccc5)cc4C3)o2)n1 (single isomer, unassigned) [(R)-32, Methyl 6-(2-(5-(Benzyloxy)indane-2-carbonyl)oxazol-5-yl)picolinate] the Ki [3, 7] was 130 nM.
In the case of N#Cc1cnc(C(=O)C2CCc3cc(-c4ccccc4)ccc3C2)o1 (single isomer, unassigned) [(S)-5, 2-(6-Phenyl-1,2,3,4-tetrahydronaphthalene-2-carbonyl)oxazole-5-carbonitrile], the Ki [3, 5] is reported as 3.4 nM.
For O=C(c1ncco1)C1CCc2cc(OCc3ccccc3)ccc2C1 (single isomer, unassigned) [(R)-15, (6-(Benzyloxy)-1,2,3,4-tetrahydronaphthalen-2-yl)(oxazol-2-yl)methanone], the Ki ([3]; Table 2, (R)-enantiomer, 1,2,3,4-tetrahydronaphthalene C2 acyl side chain) was 87 nM.
In the case of O=C(c1ncc(-c2ccccn2)o1)C1Cc2ccc(Oc3ccccc3)cc2C1 (single isomer, unassigned) [(R)-27, (5-Phenoxyindan-2-yl)(5-(pyridin-2-yl)oxazol-2-yl)methanone], the Ki [3, 7] is reported as 42 nM.
For COC(=O)c1cccc(-c2cnc(C(=O)C3Cc4ccc(OCc5ccccc5)cc4C3)o2)n1 (single isomer, unassigned) [(S)-32, Methyl 6-(2-(5-(Benzyloxy)indane-2-carbonyl)oxazol-5-yl)picolinate], the Ki [3, 6] was 5.8 nM.
Work on O=C(c1ncco1)C1Cc2ccc(Oc3ccccc3)cc2C1 (single isomer, unassigned) [(R)-26, Oxazol-2-yl(5-phenoxyindan-2-yl)methanone] yielded a Ki [3, 7] of 200 nM.
